Experimental findings from US11981658B2, “Substituted aminopyridine compounds as EGFR inhibitors” (YUHAN CORPORATION, priority 2021, dated 2024) are described below.

Like-named read-outs stand apart in the source and are kept apart here.

For one experiment, the target named is EGFR Del19/C797S (Homo sapiens, UniProt P00533, C797S/DEL746-750). The experiment can be described thus: Biochemical EGFR kinase inhibition assay (Lance Ultra TR-FRET), double mutant del19/C797S. In outline:
(§1)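 Step 1: compound in kinase buffer, 0.003–10 μM. Step 2: kinase reaction 1 h at room temperature. Step 4: TR-FRET read at 615/665 nm; IC50 calculated.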

A further experiment has as its target EGFR L858R/C797S (Homo sapiens, UniProt P00533, C797S/L858R). The experiment can be described thus: Biochemical EGFR kinase inhibition assay (Lance Ultra TR-FRET), double mutant L858R/C797S. The method in brief: as §1
Another experiment concerns the target EGFR Del19/T790M/C797S (Homo sapiens, UniProt P00533, C797S/DEL746-750/T790M). Briefly: Biochemical EGFR kinase inhibition assay (Lance Ultra TR-FRET), triple mutant del19/T790M/C797S. The method in brief: as §1
For a further experiment, the target named is EGFR wildtype (WT) (Homo sapiens, UniProt P00533). Briefly: Biochemical EGFR kinase inhibition assay (Lance Ultra TR-FRET), wildtype. The method in brief: as §1
The target of a further experiment is EGFR L858R/T790M/C797S (Homo sapiens, UniProt P00533, C797S/L858R/T790M). Briefly: Biochemical EGFR kinase inhibition assay (Lance Ultra TR-FRET), triple mutant L858R/T790M/C797S. In outline: as §1
The mark [1] stands for this setting: IC50 Del19/C797S (nM), 100 μM ATP.
[2] abbreviates: IC50 L858R/C797S (nM), 100 μM ATP.
Where [3] appears, read: IC50 Del19/T790M/C797S (nM), 100 μM ATP.
The mark [4] stands for this setting: IC50 L858R/T790M/C797S (nM), 100 μM ATP.
[5] abbreviates: Km ATP, read-out: IC50 Del19/C797S (nM), Km ATP.
Where [6] appears, read: Km ATP, read-out: IC50 L858R/C797S (nM), Km ATP.
Setting [7] is: Km ATP, read-out: IC50 Del19/T790M/C797S (nM), Km ATP.
[8] abbreviates: Km ATP, read-out: IC50 WT (nM), Km ATP.
[9] abbreviates: Km ATP, read-out: IC50 L858R/T790M/C797S (nM), Km ATP.
[10] abbreviates: ATP at Km, read-out: IC50 Del19/C797S (nM), Km ATP.
The mark [11] stands for this setting: ATP at Km, read-out: IC50 L858R/C797S (nM), Km ATP.
Setting [12] is: ATP at Km, read-out: IC50 Del19/T790M/C797S (nM), Km ATP.
Where [13] appears, read: ATP at Km, read-out: IC50 WT (nM), Km ATP.
The mark [14] stands for this setting: ATP at Km, read-out: IC50 L858R/T790M/C797S (nM), Km ATP.

EGFR L858R/C797S, sequence (P00533 25-1210 C797S/L858R): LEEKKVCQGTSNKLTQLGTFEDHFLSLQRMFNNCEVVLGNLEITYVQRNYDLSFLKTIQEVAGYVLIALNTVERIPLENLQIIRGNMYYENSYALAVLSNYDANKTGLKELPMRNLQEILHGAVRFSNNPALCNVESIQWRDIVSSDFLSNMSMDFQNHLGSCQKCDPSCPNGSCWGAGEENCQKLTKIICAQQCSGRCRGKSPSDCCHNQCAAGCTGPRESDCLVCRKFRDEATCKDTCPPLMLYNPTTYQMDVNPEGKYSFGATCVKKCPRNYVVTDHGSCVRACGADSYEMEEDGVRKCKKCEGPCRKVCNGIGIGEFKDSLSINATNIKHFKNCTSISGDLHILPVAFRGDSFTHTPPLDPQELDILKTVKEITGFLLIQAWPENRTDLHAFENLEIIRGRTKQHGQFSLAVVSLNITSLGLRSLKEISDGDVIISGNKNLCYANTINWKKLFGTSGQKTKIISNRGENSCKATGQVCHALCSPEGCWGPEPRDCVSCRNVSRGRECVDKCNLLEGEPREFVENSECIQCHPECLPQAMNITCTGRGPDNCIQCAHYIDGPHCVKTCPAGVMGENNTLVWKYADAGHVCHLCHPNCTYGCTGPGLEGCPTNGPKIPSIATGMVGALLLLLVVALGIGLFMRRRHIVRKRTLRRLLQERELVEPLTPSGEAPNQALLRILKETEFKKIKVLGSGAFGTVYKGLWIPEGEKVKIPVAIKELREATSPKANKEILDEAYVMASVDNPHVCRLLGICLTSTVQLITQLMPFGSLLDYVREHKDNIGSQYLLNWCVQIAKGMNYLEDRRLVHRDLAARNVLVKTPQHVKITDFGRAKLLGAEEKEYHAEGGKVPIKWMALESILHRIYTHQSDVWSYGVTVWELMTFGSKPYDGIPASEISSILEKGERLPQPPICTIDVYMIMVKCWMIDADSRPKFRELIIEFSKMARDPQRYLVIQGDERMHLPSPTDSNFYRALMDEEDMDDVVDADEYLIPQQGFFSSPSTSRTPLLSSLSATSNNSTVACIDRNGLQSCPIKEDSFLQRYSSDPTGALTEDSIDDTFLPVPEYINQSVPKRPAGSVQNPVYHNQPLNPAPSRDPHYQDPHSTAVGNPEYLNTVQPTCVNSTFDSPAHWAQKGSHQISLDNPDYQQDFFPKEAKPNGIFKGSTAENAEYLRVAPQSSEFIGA
EGFR L858R/T790M/C797S, sequence (P00533 25-1210 T790M/C797S/L858R): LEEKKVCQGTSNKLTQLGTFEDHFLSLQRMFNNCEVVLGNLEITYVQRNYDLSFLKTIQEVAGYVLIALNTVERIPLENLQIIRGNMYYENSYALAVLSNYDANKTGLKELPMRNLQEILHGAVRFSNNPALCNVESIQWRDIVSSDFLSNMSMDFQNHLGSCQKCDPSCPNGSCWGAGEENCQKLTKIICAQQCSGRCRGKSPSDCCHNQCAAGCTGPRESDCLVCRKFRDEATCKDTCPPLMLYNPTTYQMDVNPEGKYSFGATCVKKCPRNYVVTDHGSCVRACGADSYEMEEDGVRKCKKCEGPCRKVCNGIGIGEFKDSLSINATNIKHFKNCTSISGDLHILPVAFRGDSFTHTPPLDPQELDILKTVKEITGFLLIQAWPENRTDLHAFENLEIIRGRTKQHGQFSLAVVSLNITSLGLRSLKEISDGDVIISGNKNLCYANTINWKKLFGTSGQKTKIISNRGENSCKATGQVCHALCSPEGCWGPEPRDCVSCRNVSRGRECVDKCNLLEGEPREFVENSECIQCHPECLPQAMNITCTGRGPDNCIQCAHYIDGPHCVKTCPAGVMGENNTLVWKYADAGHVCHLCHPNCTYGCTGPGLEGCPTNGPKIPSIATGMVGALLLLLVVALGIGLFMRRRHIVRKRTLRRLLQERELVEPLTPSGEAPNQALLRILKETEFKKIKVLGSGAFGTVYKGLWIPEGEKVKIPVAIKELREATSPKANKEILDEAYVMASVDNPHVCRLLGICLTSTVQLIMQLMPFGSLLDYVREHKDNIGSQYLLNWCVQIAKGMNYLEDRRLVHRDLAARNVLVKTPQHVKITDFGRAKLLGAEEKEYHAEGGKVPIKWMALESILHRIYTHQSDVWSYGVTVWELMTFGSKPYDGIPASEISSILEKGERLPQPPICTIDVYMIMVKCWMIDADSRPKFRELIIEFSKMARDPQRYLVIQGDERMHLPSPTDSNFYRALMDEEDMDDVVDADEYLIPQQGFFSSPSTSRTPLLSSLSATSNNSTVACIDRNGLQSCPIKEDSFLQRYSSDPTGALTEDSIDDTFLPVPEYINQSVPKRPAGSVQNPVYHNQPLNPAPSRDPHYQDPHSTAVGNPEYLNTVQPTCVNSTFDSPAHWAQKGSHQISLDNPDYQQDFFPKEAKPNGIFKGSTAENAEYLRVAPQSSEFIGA
EGFR wildtype (WT), sequence (P00533 25-1210): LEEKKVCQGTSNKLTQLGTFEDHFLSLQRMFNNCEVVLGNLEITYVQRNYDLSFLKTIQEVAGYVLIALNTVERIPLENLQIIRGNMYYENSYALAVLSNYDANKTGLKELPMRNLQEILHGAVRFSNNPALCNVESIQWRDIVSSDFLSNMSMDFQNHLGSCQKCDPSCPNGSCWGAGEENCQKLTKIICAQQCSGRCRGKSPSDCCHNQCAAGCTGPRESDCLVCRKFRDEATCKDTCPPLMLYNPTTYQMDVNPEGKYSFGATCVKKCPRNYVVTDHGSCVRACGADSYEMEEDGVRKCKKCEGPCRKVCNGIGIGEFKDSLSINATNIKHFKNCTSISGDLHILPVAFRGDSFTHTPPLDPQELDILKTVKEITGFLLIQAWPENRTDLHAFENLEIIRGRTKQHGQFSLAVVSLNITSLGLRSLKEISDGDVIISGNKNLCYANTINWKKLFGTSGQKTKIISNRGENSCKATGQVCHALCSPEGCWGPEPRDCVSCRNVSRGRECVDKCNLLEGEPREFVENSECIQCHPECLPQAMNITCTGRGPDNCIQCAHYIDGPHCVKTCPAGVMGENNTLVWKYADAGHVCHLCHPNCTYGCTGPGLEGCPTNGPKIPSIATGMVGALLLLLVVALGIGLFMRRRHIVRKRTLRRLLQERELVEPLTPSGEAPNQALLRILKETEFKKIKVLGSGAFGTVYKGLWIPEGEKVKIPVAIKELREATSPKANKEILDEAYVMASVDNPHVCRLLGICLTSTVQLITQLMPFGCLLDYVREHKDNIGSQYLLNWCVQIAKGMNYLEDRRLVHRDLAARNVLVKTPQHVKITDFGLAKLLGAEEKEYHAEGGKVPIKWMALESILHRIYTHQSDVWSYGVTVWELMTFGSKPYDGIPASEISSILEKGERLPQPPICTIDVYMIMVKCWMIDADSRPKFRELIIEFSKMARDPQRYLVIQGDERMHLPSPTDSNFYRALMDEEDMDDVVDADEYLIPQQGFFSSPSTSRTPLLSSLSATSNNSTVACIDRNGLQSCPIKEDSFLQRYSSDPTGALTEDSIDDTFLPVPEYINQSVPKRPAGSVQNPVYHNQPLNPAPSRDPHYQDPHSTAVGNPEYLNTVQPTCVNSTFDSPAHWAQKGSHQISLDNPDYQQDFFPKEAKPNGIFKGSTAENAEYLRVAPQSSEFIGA
EGFR Del19/C797S, sequence (P00533 with tags, fused parts or gaps DEL746-750/C797S): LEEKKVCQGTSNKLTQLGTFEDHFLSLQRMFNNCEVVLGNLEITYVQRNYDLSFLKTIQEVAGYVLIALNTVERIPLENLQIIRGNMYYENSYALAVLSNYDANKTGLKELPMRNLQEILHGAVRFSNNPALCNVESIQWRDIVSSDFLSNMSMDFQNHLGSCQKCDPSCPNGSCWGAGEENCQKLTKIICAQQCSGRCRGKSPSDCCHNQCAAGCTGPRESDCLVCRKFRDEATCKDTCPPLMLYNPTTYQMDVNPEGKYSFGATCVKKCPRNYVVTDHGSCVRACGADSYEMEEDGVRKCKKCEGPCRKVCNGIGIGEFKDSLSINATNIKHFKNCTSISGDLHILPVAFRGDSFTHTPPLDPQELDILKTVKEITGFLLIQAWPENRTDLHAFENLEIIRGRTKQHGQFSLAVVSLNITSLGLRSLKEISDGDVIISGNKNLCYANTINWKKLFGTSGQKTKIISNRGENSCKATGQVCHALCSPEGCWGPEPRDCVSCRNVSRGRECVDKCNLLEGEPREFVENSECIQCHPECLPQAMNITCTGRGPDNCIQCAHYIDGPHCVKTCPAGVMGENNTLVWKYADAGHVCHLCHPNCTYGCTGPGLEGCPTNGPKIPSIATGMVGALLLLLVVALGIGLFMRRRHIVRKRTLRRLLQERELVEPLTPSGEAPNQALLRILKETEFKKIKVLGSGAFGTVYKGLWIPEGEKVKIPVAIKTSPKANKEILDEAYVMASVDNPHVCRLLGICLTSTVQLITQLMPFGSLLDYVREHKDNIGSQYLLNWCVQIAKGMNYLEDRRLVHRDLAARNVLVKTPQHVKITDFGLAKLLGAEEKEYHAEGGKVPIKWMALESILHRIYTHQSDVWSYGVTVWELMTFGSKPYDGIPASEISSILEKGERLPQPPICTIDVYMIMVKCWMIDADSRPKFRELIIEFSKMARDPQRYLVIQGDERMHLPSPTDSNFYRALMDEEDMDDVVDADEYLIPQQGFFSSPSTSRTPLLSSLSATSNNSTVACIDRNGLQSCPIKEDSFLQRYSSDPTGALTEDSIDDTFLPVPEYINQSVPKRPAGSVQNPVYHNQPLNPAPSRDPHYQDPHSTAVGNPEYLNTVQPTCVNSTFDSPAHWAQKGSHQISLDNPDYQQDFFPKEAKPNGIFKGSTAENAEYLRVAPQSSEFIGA

For `CC(C)CCNC1CCN(c2cc(Nc3ccnc(-c4cnn(S(=O)(=O)C5CC5)c4)n3)ncc2C#Cc2cnn(C)c2)CC1` [Example 125, 2-(1-(Cyclopropylsulfonyl)-1H-pyrazol-4-yl)-N-(4-(4-(isopentylamino)piperidin-1-yl)-5-((1-methyl-1H-pyrazol-4-yl)ethynyl)pyridin-2-yl)pyrimidin-4-amine], the IC50 is 34.2 nM at EGFR Del19/C797S (setting [1]); 330 nM against EGFR L858R/C797S (setting [2]); 5.6 nM against EGFR Del19/T790M/C797S (setting [3]); > 10000 nM at EGFR wildtype (WT) (IC50 WT (nM), 100 μM ATP); 5.6 nM at EGFR L858R/T790M/C797S (setting [4]).

Turning to `Cc1nc(C#Cc2cnc(Nc3ccnc(-c4cnn(S(=O)(=O)C5CC5)c4)n3)cc2N2CCC(O)CC2)cs1` [Example 211, 1-(2-((2-(1-(Cyclopropylsulfonyl)-1H-pyrazol-4-yl)pyrimidin-4-yl)amino)-5-((2-methylthiazol-4-yl)ethynyl)pyridin-4-yl)piperidin-4-ol], the IC50 on EGFR Del19/C797S (setting [1]) is 32.3 nM; against EGFR L858R/C797S (setting [2]), 66.2 nM; at EGFR Del19/T790M/C797S (setting [3]), 1.4 nM; against EGFR wildtype (WT) (IC50 WT (nM), 100 μM ATP), > 10000 nM; on EGFR L858R/T790M/C797S (setting [4]), 6.9 nM.

Turning to `CS(=O)(=O)N1CCC(C#Cc2cnc(Nc3ccnc(-c4cnn(S(=O)(=O)C5CC5)c4)n3)cc2NC2CCC(O)CC2)C1` (stereo not drawn) [Example 399, (1s,4s)-4-((2-((2-(1-(Cyclopropylsulfonyl)-1H-pyrazol-4-yl)pyrimidin-4-yl)amino)-5-((1-(methylsulfonyl)pyrrolidin-3-yl)ethynyl)pyridin-4-yl)amino)cyclohexan-1-ol], the IC50 is 1.4 nM against EGFR Del19/C797S (setting [1]); 0.6 nM on EGFR Del19/C797S (setting [5]); 28.2 nM on EGFR L858R/C797S (setting [2]); 1.6 nM at EGFR L858R/C797S (setting [6]); 5.7 nM against EGFR Del19/T790M/C797S (setting [3]); 1.3 nM on EGFR Del19/T790M/C797S (setting [7]). The IC50 against EGFR wildtype (WT) (IC50 WT (nM), 100 μM ATP) is > 10000 nM; at EGFR wildtype (WT) (setting [8]), 10.2 nM; against EGFR L858R/T790M/C797S (setting [4]) it was 1.2 nM; on EGFR L858R/T790M/C797S (setting [9]) it was 0.8 nM.

With `CC1(O)CCC(Nc2cc(Nc3ccnc(-c4cnn(S(=O)(=O)C5CC5)c4)n3)ncc2C#Cc2cnn(C3CC3(F)F)c2)CC1` (stereo not drawn) [Example 326, (1s,4s)-4-((2-((2-(1-(Cyclopropylsulfonyl)-1H-pyrazol-4-yl)pyrimidin-4-yl)amino)-5-((1-(2,2-difluorocyclopropyl)-1H-pyrazol-4-yl)ethynyl)pyridin-4-yl)amino)-1-methylcyclohexan-1-ol], the IC50 on EGFR Del19/C797S (setting [10]) came out at 10.3 nM; against EGFR Del19/C797S (setting [1]), 19.2 nM; at EGFR L858R/C797S (setting [11]), 5.3 nM; at EGFR L858R/C797S (setting [2]), 145 nM; on EGFR Del19/T790M/C797S (setting [12]) it was 1.9 nM; against EGFR Del19/T790M/C797S (setting [3]), 1.9 nM. Besides, the IC50 was 17.6 nM at EGFR wildtype (WT) (setting [13]); > 10000 nM against EGFR wildtype (WT) (IC50 WT (nM), 100 μM ATP); 0.6 nM at EGFR L858R/T790M/C797S (setting [14]); 2.1 nM against EGFR L858R/T790M/C797S (setting [4]).

For the compound `CC1(CO)CCN(c2cc(Nc3ccnc(-c4cnn(S(=O)(=O)C5CC5)c4)n3)ncc2C#CCCF)CC1` [Example 276, (1-(2-((2-(1-(Cyclopropylsulfonyl)-1H-pyrazol-4-yl)pyrimidin-4-yl)amino)-5-(4-fluorobut-1-yn-1-yl)pyridin-4-yl)-4-methylpiperidin-4-yl)methanol], the IC50 on EGFR Del19/C797S (setting [10]) came out at 0.8 nM; against EGFR Del19/C797S (setting [1]), 1.3 nM; on EGFR L858R/C797S (setting [11]) it was 1.5 nM; at EGFR L858R/C797S (setting [2]), 16.5 nM; on EGFR Del19/T790M/C797S (setting [12]), 0.3 nM; on EGFR Del19/T790M/C797S (setting [3]), 0.7 nM. In addition, the IC50 was 7.5 nM on EGFR wildtype (WT) (setting [13]); 5290 nM at EGFR wildtype (WT) (IC50 WT (nM), 100 μM ATP); 0.1 nM at EGFR L858R/T790M/C797S (setting [14]); 0.5 nM against EGFR L858R/T790M/C797S (setting [4]).

Consider `Cn1cc(C#Cc2cnc(Nc3ccnc(-c4cnn(S(=O)(=O)C5CC5)c4)n3)cc2N2CCC(O)C(F)(F)C2)cn1` (stereo not drawn) [Example 68, 1-(2-((2-(1-(Cyclopropylsulfonyl)-1H-pyrazol-4-yl)pyrimidin-4-yl)amino)-5-((1-methyl-1H-pyrazol-4-yl)ethynyl)pyridin-4-yl)-3,3-difluoropiperidin-4-ol], for which the IC50 on EGFR Del19/C797S (setting [1]) is 31 nM; against EGFR L858R/C797S (setting [2]), 130 nM; against EGFR Del19/T790M/C797S (setting [3]) it was 1.3 nM; at EGFR wildtype (WT) (IC50 WT (nM), 100 μM ATP), > 10000 nM; at EGFR L858R/T790M/C797S (setting [4]) it was 8.9 nM.

`CC1(CO)CCN(c2cc(Nc3ccnc(-c4cnn(S(=O)(=O)C5CC5)c4)n3)ncc2C#CC2CCN(S(C)(=O)=O)CC2)CC1` [Example 389, (1-(2-((2-(1-(Cyclopropylsulfonyl)-1H-pyrazol-4-yl)pyrimidin-4-yl)amino)-5-((1-(methylsulfonyl)piperidin-4-yl)ethynyl)pyridin-4-yl)-4-methylpiperidin-4-yl)methanol]: the IC50 was found to be 2.1 nM against EGFR Del19/C797S (setting [1]); 0.4 nM on EGFR Del19/C797S (setting [5]); 14.5 nM on EGFR L858R/C797S (setting [2]); 1.6 nM on EGFR L858R/C797S (setting [6]); 0.5 nM on EGFR Del19/T790M/C797S (setting [3]); 0.3 nM on EGFR Del19/T790M/C797S (setting [7]). The IC50 against EGFR wildtype (WT) (IC50 WT (nM), 100 μM ATP) was 5200 nM; at EGFR wildtype (WT) (setting [8]), 4.6 nM; at EGFR L858R/T790M/C797S (setting [4]) it was 0.7 nM; at EGFR L858R/T790M/C797S (setting [9]), 0.1 nM.

On to `Cn1cc(C#Cc2cnc(Nc3ccnc(-c4cnn(S(=O)(=O)C5CC5)c4)n3)cc2N2CCC(OC(F)(F)F)CC2)cn1` [Example 67, 2-(1-(Cyclopropylsulfonyl)-1H-pyrazol-4-yl)-N-(5-((1-methyl-1H-pyrazol-4-yl)ethynyl)-4-(4-(trifluoromethoxy)piperidin-1-yl)pyridin-2-yl)pyrimidin-4-amine], for which the IC50 against EGFR Del19/C797S (setting [1]) is 181 nM; against EGFR L858R/C797S (setting [2]) it was 209 nM; against EGFR Del19/T790M/C797S (setting [3]) it was 13.3 nM; against EGFR wildtype (WT) (IC50 WT (nM), 100 μM ATP), > 10000 nM; on EGFR L858R/T790M/C797S (setting [4]), 27.7 nM.

In the case of `CN(C)CC1(C)CCN(c2cc(Nc3ccnc(-c4cnn(S(=O)(=O)C5CC5)c4)n3)ncc2C#CC2(C)CC2)CC1` [Example 406, 2-(1-(Cyclopropylsulfonyl)-1H-pyrazol-4-yl)-N-(4-(4-((dimethylamino)methyl)-4-methylpiperidin-1-yl)-5-((1-methylcyclopropyl)ethynyl)pyridin-2-yl)pyrimidin-4-amine], the IC50 is 4.3 nM against EGFR Del19/C797S (setting [1]); 3.3 nM at EGFR Del19/C797S (setting [5]); 58.2 nM on EGFR L858R/C797S (setting [2]); 2.7 nM at EGFR L858R/C797S (setting [6]); 0.9 nM against EGFR Del19/T790M/C797S (setting [3]); > 10000 nM at EGFR wildtype (WT) (IC50 WT (nM), 100 μM ATP). For the same compound, the IC50 on EGFR wildtype (WT) (setting [8]) was 35.2 nM; at EGFR L858R/T790M/C797S (setting [4]) it was 1.3 nM.

As to `CC1(CO)CCN(c2cc(Nc3ccnc(-c4cnn(S(=O)(=O)C5CC5)c4)n3)ncc2C#Cc2ccc(CN3CCOCC3)s2)CC1` [Example 191, (1-(2-((2-(1-(Cyclopropylsulfonyl)-1H-pyrazol-4-yl)pyrimidin-4-yl)amino)-5-((5-(morpholinomethyl)thiophen-2-yl)ethynyl)pyridin-4-yl)-4-methylpiperidin-4-yl)methanol], the IC50 was 2.2 nM at EGFR Del19/C797S (setting [10]); 4.3 nM at EGFR Del19/C797S (setting [1]); 3.2 nM on EGFR L858R/C797S (setting [11]); 21.7 nM on EGFR L858R/C797S (setting [2]); 3 nM on EGFR Del19/T790M/C797S (setting [12]); 7 nM at EGFR Del19/T790M/C797S (setting [3]). The IC50 was determined as 8.1 nM at EGFR wildtype (WT) (setting [13]); 3580 nM against EGFR wildtype (WT) (IC50 WT (nM), 100 μM ATP); 1.5 nM on EGFR L858R/T790M/C797S (setting [14]); 9.8 nM at EGFR L858R/T790M/C797S (setting [4]).
